{"source": "patent US20180256623A1", "about": "“COMPOSITIONS AND METHOD FOR REGULATING ADIPOSE TISSUE LIPOLYSIS, INSULIN-RESISTANCE, AND HYPERGLYCEMIA” (University of Virginia Patent Foundation, priority 2015, published 2018)", "origin": "cited, not measured here", "biological_target": "T1, monoglyceride lipase (Homo sapiens, UniProt Q99685)", "T1 sequence (Q99685 1-303)": "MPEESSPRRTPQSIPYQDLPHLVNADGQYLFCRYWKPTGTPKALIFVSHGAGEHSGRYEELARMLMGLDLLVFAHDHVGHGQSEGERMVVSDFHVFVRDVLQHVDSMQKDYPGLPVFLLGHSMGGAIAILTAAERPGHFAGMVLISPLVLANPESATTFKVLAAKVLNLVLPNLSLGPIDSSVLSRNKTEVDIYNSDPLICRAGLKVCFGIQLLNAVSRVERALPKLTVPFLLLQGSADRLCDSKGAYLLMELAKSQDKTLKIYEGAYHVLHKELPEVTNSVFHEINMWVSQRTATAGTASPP", "settings": "cited from earlier work"}
{"smiles": "CN(C)C(=O)Nc1cccc(-c2ccc(N(C)C)cc2)c1", "note": "[Atglistatin, N′-[4′-(dimethylamino) [1,1′-biphenyl]-3-yl]-N,N-dimethyl-urea]", "values": [{"measurement": "inhibition of monoglyceride lipase", "value": "does not inhibit"}]}
